Measurements as given in the supplement of paper PMC8967900.

Experiments:
Test in all cases: selective drug sensitivity score (sDSS, relative to normal bone marrow) (sDSS (score)); higher = more potent and effective on the cell line relative to normal bone marrow cells
Settings in all cases: 72 h
[1] = tested on: REH
[2] = tested on: TANOUE
[3] = tested on: JURKAT
[4] = tested on: RPMI-8402
[5] = tested on: MOLT-4
[6] = tested on: 380
[7] = tested on: COG-LL-402h
[8] = tested on: CCRF-HSB2
[9] = tested on: MOLT-14
[10] = tested on: KOPN-8
[11] = tested on: MHH-CALL-3
[12] = tested on: COG-LL-319h
[13] = tested on: CCRF-CEM
[14] = tested on: ALL-SIL
[15] = tested on: PEER
[16] = tested on: P30-OHKUBO
[17] = tested on: DND-41
[18] = tested on: KASUMI-2
[19] = tested on: HAL-01
[20] = tested on: TMD5
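Also: ALL cell lines in 384-well plates, five doses spanning 10,000-fold, each plate scaled between vehicle and 100 µmol/L benzalkonium chloride controls, sDSS an adapted area-under-curve metric.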

Row | SMILES | selective drug sensitivity score [1] | selective drug sensitivity score [2] | selective drug sensitivity score [3] | selective drug sensitivity score [4] | selective drug sensitivity score [5] | selective drug sensitivity score [6] | selective drug sensitivity score [7] | selective drug sensitivity score [8] | selective drug sensitivity score [9] | selective drug sensitivity score [10] | selective drug sensitivity score [11] | selective drug sensitivity score [12] | selective drug sensitivity score [13] | selective drug sensitivity score [14] | selective drug sensitivity score [15] | selective drug sensitivity score [16] | selective drug sensitivity score [17] | selective drug sensitivity score [18] | selective drug sensitivity score [19] | selective drug sensitivity score [20]
1 | COc1ccc(S(=O)(=O)Nc2cccnc2Nc2ccc(O)cc2)cc1 [ABT-751] (top concentration 10000 nM) | 15.4 | -3.48 | 15.6 | 11.9 | 11.1 | 8.72 | 8.92 | 13 | 11.9 | 14.6 | 3.72 | 10.7 | 12.2 | 17.6 | 15.5 | 11.6 | 6.12 | 4.72 | 11.7 | 7.32
2 | CC1CCC(n2c3cnccc3c3cnc(Nc4ccc5c(n4)CCN(C(=O)CO)C5)nc32)CC1 (stereo not given) [AMG-925] (top concentration 1000 nM) | 3.44 | 1.94 | 4.54 | 5.74 | 2.34 | 2.44 | 6.14 | 1.94 | 6.14 | 10.9 | 4.94 | 6.44 | 3.14 | 2.04 | 5.54 | 8.14 | 6.14 | -0.66 | 3.44 | -0.66
3 | O=C(NC1CCNCC1)c1n[nH]cc1NC(=O)c1c(Cl)cccc1Cl [AT7519] (top concentration 10000 nM) | -2.16 | -17.8 | -10.7 | -7.46 | -7.66 | -4.86 | -3.66 | -3.46 | -3.86 | -5.06 | -4.56 | -4.26 | -3.46 | -6.06 | -3.56 | -2.96 | -5.66 | -4.46 | -14.6 | -4.16
4 | Cc1cc2c(C(C)C)c(O)c(O)c(C=O)c2c(O)c1-c1c(C)cc2c(C(C)C)c(O)c(O)c(C=O)c2c1O [AT-101] (top concentration 100000 nM) | 5.28 | 0.98 | 4.28 | 1.88 | 1.98 | -0.22 | 4.18 | 2.48 | 4.98 | 14.6 | -0.92 | 4.48 | 4.88 | 5.08 | 4.18 | 5.18 | 4.68 | -0.32 | 0.58 | 0.18
5 | N[C@@H]1CCCN(c2c(/C=C3\SC(=O)NC3=O)cccc2-c2ccccc2)C1 [AZD1208] (top concentration 10000 nM) | 5.5 | -4.1 | -4.2 | -3.1 | -4.4 | 14.8 | -4.4 | 6.5 | 1.5 | 7.4 | -4.4 | -4.4 | -4.4 | 0.7 | -2.7 | -1.1 | -1.3 | -4.4 | 6.3 | 3.1
6 | Cc1ncc(-c2ccnc(Nc3ccc(S(C)(=O)=O)cc3)n2)n1C(C)C [AZD-5438] (top concentration 10000 nM) | 1.54 | -9.96 | -1.06 | -0.76 | -5.46 | -7.56 | -0.46 | 1.34 | 3.64 | 5.24 | 6.64 | 8.54 | 3.54 | -3.86 | 3.04 | 0.84 | -2.06 | -0.86 | -5.96 | -5.96
7 | CCN1CCN(Cc2ccc(Nc3ncc(F)c(-c4cc(F)c5nc(C)n(C(C)C)c5c4)n3)nc2)CC1 [Abemaciclib] (top concentration 2500 nM) | -0.06 | -9.66 | -6.16 | 0.74 | -1.96 | -6.86 | 1.74 | -2.46 | 1.44 | 20.2 | 1.24 | 6.64 | -2.36 | -2.66 | -1.96 | 5.94 | 0.34 | 1.74 | -3.06 | -9.66
8 | Cn1ncc(Cl)c1-c1cc(C(=O)N[C@H](CN)Cc2cccc(F)c2)sc1Cl [Afuresertib] (top concentration 1000 nM) | 3.56 | -1.94 | 3.86 | 1.16 | 6.26 | 2.46 | 4.56 | 0.86 | 0.16 | 6.06 | -1.94 | 7.76 | 5.36 | 3.66 | -1.34 | 5.56 | -2.34 | 10.2 | 3.96 | -2.34
9 | O=C(Nc1cc(Oc2cc(F)c(NC(=O)C3(C(=O)Nc4ccc(F)cc4)CC3)cc2F)ccn1)C1CC1 [Altiratinib] (top concentration 10000 nM) | 3.84 | -2.56 | 0.84 | 1.64 | 0.24 | -0.86 | -2.16 | 8.14 | -0.36 | 3.74 | -4.86 | 2.84 | -0.16 | 13.9 | 9.24 | 1.84 | 3.74 | -0.66 | 1.14 | 3.24
